Measurements published in patent US20230203025A1, “ENHANCERS OF PARTICULATE GUANYLYL CYCLASE RECEPTOR A” (Mayo Foundation for Medical Education and Research, priority 2020, published 2023).

Legend:
plasma stability, mouse = assay type: in vitro ADME
[1] = tested on: primary human renal proximal tubular cells (HRPTCs); assay: cGMP generation in primary human renal proximal tubular cells; assay type: cell-based
Text: HRPTCs represent an important human cell line as renal tubular injury and apoptosis leads to impaired renal function and structure.

[2] = tested on: human visceral adipocytes; assay: browning and glycerol production in human visceral adipocytes; assay type: cell-based

CN(C)CCN1CCCC(C(=O)Nc2nc3c(F)cc(F)cc3s2)C1 (centres unmarked) [Compound 19]
Plasma Stability (% remaining at 1 h) (plasma stability, mouse): 109.7% | cGMP generation ([1]; HRPTCs, 1, 5 or 10 μM compound in the presence of ANP (10^−10 M)): clear increase in cGMP generation | cGMP generation ([1]; HRPTCs, compound alone at similar dose, no ANP): did not generate cGMP generation | expression of the browning protein UCP1 ([2]; compound 19 added to ANP): augmented UCPI expression | ANP induction of glycerol ([2]; compound 19 with ANP, not illustrated): dose dependently increased
